For data set [1], the target named is T1, Amine oxidase [flavin-containing] A (Homo sapiens, UniProt P21397).
T1 sequence (P21397 whole entry): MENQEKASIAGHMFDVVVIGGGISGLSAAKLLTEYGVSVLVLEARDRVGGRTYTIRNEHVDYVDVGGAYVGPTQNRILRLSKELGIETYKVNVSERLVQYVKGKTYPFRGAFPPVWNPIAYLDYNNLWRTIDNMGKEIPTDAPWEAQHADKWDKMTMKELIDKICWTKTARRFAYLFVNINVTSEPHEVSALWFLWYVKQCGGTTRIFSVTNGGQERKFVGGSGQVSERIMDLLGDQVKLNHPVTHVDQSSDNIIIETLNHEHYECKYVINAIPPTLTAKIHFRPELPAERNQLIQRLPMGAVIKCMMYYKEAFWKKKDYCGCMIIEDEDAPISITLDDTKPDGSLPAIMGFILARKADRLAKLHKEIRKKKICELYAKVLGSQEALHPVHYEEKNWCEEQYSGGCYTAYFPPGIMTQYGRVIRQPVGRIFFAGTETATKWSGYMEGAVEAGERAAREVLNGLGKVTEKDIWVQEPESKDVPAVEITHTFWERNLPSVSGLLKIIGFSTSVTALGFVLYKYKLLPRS
Kind of data set: Inhibition of recombinant human MAO-A expressed in baculovirus infected BTI-TN-5B1-4 insect cells using p-tyramine as substrate preincubated for 15 mins followed by substrate addition and measured over 20 mins by horse-radish peroxidase/Amplex Red coupled fluorimetric analysis.

Data set [2] addresses T2, Amine oxidase [flavin-containing] B (Homo sapiens, UniProt P27338).
T2 sequence (P27338 whole entry): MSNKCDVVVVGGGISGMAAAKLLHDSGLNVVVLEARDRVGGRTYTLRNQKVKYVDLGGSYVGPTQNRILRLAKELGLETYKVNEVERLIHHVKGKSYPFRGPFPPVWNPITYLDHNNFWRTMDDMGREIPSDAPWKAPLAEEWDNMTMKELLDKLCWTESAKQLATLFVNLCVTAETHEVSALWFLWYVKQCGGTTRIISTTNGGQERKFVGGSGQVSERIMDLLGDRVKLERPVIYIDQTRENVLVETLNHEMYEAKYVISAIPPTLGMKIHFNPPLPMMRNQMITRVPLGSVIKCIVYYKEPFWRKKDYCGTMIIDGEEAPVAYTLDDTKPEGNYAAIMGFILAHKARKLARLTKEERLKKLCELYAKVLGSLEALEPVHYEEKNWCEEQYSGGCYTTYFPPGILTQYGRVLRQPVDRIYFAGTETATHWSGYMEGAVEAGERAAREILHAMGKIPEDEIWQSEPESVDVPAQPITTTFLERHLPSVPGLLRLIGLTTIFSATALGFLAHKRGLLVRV
Description: biochemical. The format is cell-based, BTI-TN-5B1-4.
Description: Inhibition of recombinant human MAO-B expressed in baculovirus infected BTI-TN-5B1-4 insect cells using p-tyramine as substrate preincubated for 15 mins followed by substrate addition and measured over 20 mins by horse-radish peroxidase/Amplex Red coupled fluorimetric analysis

The test system of data set [3] is SH-SY5Y. Description: Cytotoxicity against human SH-SY5Y cells assessed as reduction in metabolic activity up to 20 uM incubated for 24 hrs by MTS assay. It counts as ADME, cell-based.
In data set [4] the target is T2, Amine oxidase [flavin-containing] B. Kind of data set: Competitive inhibition of recombinant human MAO-B expressed in baculovirus infected BTI-TN-5B1-4 insect cells using varying level of p-tyramine as substrate by Lineweaver-Burk plot analysis.
Data set [5] is described as follows: Cytotoxicity against human SH-SY5Y cells assessed as metabolic activity up to 100 uM incubated for 24 hrs by MTS assay relative to control. The format is ADME, cell-based. To be noted: read-out: Activity.
The test system of data set [6] is SH-SY5Y. Kind of data set: Cytotoxicity against human SH-SY5Y cells assessed as reduction in metabolic activity at 50 to 100 uM incubated for 24 hrs by MTS assay. It counts as ADME, cell-based. To be noted: dose 50-100 µM.
Data set [7] concerns SH-SY5Y. Description: Neuroprotective activity against 6-OHDA-induced cell death in human SH-SY5Y cells at 1 uM preincubated for 1 hr followed by 6-OHDA stimulation for 24 hrs by 7AAD staining based flow cytometric analysis. It counts as functional. To be noted: time 25.0 hrs.

Activity calls are given as the source filed them. No cut-off for these calls is given here.

For the molecule `CS(=O)(=O)c1ccc(-c2cnc3c4cccnc4nn3c2)cc1`, the IC50 in data set [1] was more than 100 µM; in data set [2] it was 5.7 µM.
`Brc1ccc2c(c1)nn1cc(Br)cnc21`: the IC50 in data set [1] and in data set [2] was more than 100 µM throughout.
`Fc1ncccc1-c1cnc2c3ccccc3nn2c1`: the IC50 in data set [1] stood at 21.1 µM; in data set [2] it was 0.648 µM.
For `Brc1cnc2c3ccccc3nn2c1`, in that order: more than 100 µM and more than 100 µM.
For `CCOC(=O)c1ccc(-c2cnc3c4cccnc4nn3c2)cc1`, the IC50 in data set [1] is more than 100 µM; in data set [2] it was 0.822 µM.
Take `COc1ccc(-c2cnc3c4cccnc4nn3c2)cc1`: the 50% inhibitory concentration (IC50) in data set [1] is more than 100 µM; in data set [2], 0.818 µM.
With `CSc1ccc(-c2cnc3c4ccccc4nn3c2)cc1`, the IC50 in data set [1] was more than 100 µM; in data set [2], 0.065 µM. The Activity entry in the data set with SH-SY5Y [3] was “Non-Toxic”. Also, the Ki in data set [4] stood at 0.0247 µM. Further, in data set [5], the viability at 24 h is more than 85%.
Turning to `c1cnc2c(c1)nn1cc(-c3ccsc3)cnc21`, the 50% inhibitory concentration (IC50) in data set [1] is more than 100 µM; in data set [2], 14.8 µM.
The matching figures for `COc1ccc(-c2cnc3c4nccnc4nn3c2)cc1`: more than 100 µM and 1.25 µM.
In the case of `COc1ccc(-c2cnc3c4ccccc4nn3c2)cc1`, the IC50 was more than 100 µM in data set [1] and 0.215 µM in data set [2]. For the same molecule, the Activity entry is “Toxic” with SH-SY5Y [6] and “Non-Toxic” in the data set on SH-SY5Y [3].
With `FC(F)(F)c1cccc(-c2cnc3c4cccnc4nn3c2)c1`, the half-maximal inhibitory concentration (IC50) in data set [1] is more than 100 µM; in data set [2], 1.02 µM.
For `Fc1ccc(-c2cnc3c4cccnc4nn3c2)cn1`, in that order: more than 100 µM and more than 100 µM.
Turning to `COc1ccc(-c2cnc3c4c(Cl)cccc4nn3c2)cc1`, the IC50 in data set [1] is more than 100 µM; in data set [2], 0.132 µM. Further, the Activity entry in the data set with SH-SY5Y [6] is listed as “Toxic”.
For the molecule `Brc1cnc2c3nccnc3nn2c1`, the IC50 in data set [1] and in data set [2] was more than 100 µM each time.
For `Brc1cnc2c3ncccc3nn2c1`, the IC50 in data set [1] and in data set [2] was more than 100 µM throughout.
Regarding `O=[N+]([O-])c1ccc2nn3cc(Br)cnc3c2c1`, the IC50 in data set [1] and in data set [2] was more than 100 µM each time.
Regarding `COc1ccc(-c2cnc3c4ncccc4nn3c2)cc1`, the IC50 in data set [1] is more than 100 µM; in data set [2] it was 0.236 µM. The result in the data set on SH-SY5Y [7] was Active. Further, the Activity result is listed as “Toxic” in the data set with SH-SY5Y [6] and “Non-Toxic” with SH-SY5Y [3]. Also, the inhibitory constant (Ki) in data set [4] was determined as 0.107 µM.
Regarding `COc1ccc(-c2cnc3c4c(F)cccc4nn3c2)cc1`, the values for the IC50 in data set [1] and in data set [2] were more than 100 µM and 0.062 µM, respectively. The Ki in data set [4] worked out at 0.0337 µM. In addition, in data set [5], the viability at 24 h is more than 85%.
As for `COc1ccccc1-c1cnc2c3cccnc3nn2c1`, the half-maximal inhibitory concentration (IC50) is more than 100 µM in data set [1] and 3.79 µM in data set [2].
The matching figures for `Fc1cccc2nn3cc(Br)cnc3c12`: more than 100 µM and more than 100 µM.
For `CC(=O)c1ccc(-c2cnc3c4cccnc4nn3c2)cc1`, the concentration for half-maximal inhibition (IC50) in data set [1] was more than 100 µM; in data set [2], 0.13 µM. Further, the result in the data set on SH-SY5Y [7] was Active. Moreover, in the data set with SH-SY5Y [3], the Activity result was “Non-Toxic”. Besides, the inhibitory constant (Ki) in data set [4] was found to be 0.0765 µM. Also, the viability at 24 h in data set [5] was more than 85%.
As for `Clc1cccc2nn3cc(Br)cnc3c12`, the IC50 in data set [1] and in data set [2] was more than 100 µM each time.
On to `c1csc(-c2cnc3c4cccnc4nn3c2)c1`, for which the IC50 was more than 100 µM in data set [1] and 4.48 µM in data set [2].
Regarding `Brc1cnc2c3cccnc3nn2c1`, the half-inhibitory concentration (IC50) in data set [1] and in data set [2] was more than 100 µM each time.
For `FC(F)(F)c1ccc2c(c1)nn1cc(Br)cnc21`, the figures for the IC50 in data set [1] and in data set [2] were more than 100 µM and 1.17 µM, respectively.
For `Brc1ccc2nn3cc(Br)cnc3c2c1`, in that order: more than 100 µM and more than 100 µM.
With `COc1ccc2c3c([nH]c2c1)C(C)=NCC3` [HARMALINE], the figures for the IC50 in data set [1] and in data set [2] were 0.0329 µM and more than 100 µM, respectively.
The matching figures for `c1ccc(-c2cnc3c4ncccc4nn3c2)cc1`: more than 100 µM and 88.3 µM.
For `C(=C\c1cnc2c3cccnc3nn2c1)/c1ccccc1`, in that order: more than 100 µM and 0.837 µM.
The matching figures for `CCOC(=O)c1ccccc1-c1cnc2c3nccnc3nn2c1`: more than 100 µM and more than 100 µM.
As for `COc1cccc(-c2cnc3c4cccnc4nn3c2)c1`, the half-maximal inhibitory concentration (IC50) is more than 100 µM in data set [1] and 0.397 µM in data set [2].
